Results: a compilation of properties of binary mixtures (doi:10.1021/je060497d)

Assay: xn = mol fraction of the nth substance listed
Settings: 101 kPa

CCCCCC[n+]1ccn(C)c1.F[P-](F)(F)(F)(F)F + CC(C)O
speed of sound [m/s]
Settings	x1 = 0.0011	x1 = 0.0019	x1 = 0.0024	x2 = 0	x2 = 0.0067	x2 = 0.074	x2 = 0.189	x2 = 0.3042	x2 = 0.3877	x2 = 0.5107
293.15 K	1157	–	–	–	1437	1427	1408	1388	–	–
298.15 K	1140	1141	1141	1424	1423	1413	1396	1375	–	1325
303.15 K	1122	1124	1124	1411	1410	–	1383	1363	1346	1313

CCCC[n+]1ccn(C)c1.F[P-](F)(F)(F)(F)F + CC(C)O
speed of sound [m/s]
Settings	x1 = 0.0008	x1 = 0.0011	x2 = 0	x2 = 0.0458	x2 = 0.1055	x2 = 0.1825	x2 = 0.2864
293.15 K	1156	–	1455	–	1441	1429	1409
298.15 K	1139	1140	1443	1437	1429	1417	1397
303.15 K	–	1122	1431	1425	1417	1405	1385

COS(=O)(=O)[O-].Cn1cc[n+](C)c1 + CC(C)O
speed of sound [m/s]
Settings	293.15 K	298.15 K	303.15 K
x2 = 0	1826	1813	–
x2 = 0.0498	1807	1797	1785
x2 = 0.0958	1791	1777	–
x2 = 0.2008	–	1729	1720
x2 = 0.3063	1684	1670	1662
x2 = 0.4013	1611	1605	1602
x2 = 0.4957	1525	1534	1534
x2 = 0.5945	–	1444	1459
x2 = 0.7039	1338	1352	1370
x2 = 0.8013	1269	1271	1292
x2 = 0.9019	–	1198	1207
x2 = 0.951	–	1167	1166

CCCC[n+]1ccn(C)c1.F[P-](F)(F)(F)(F)F + CCC(C)=O
speed of sound [m/s]
Settings	293.15 K	298.15 K	303.15 K
x2 = 0	1455	1443	1431
x2 = 0.0509	1449	1438	–
x2 = 0.0987	1444	1433	1419
x2 = 0.1907	1433	1421	–
x2 = 0.2915	1418	1408	1393
x2 = 0.4057	1399	1390	1374
x2 = 0.5074	1380	1369	1349
x2 = 0.5956	–	–	1322
x2 = 0.7008	–	–	1292
x2 = 0.7919	1301	1286	1260
x2 = 0.8942	1265	1248	1220
x2 = 0.9467	–	1224	1195

COS(=O)(=O)[O-].Cn1cc[n+](C)c1 + CCC(C)=O
speed of sound [m/s]
Settings	x1 = 0.0006	x1 = 0.0012	x1 = 0.0029	x2 = 0	x2 = 0.0257	x2 = 0.0716	x2 = 0.2017	x2 = 0.2926
293.15 K	1214	–	1217	1826	1819	1803	1750	1703
298.15 K	1194	1195	–	–	–	1791	1737	1689
303.15 K	–	1165	1168	1801	–	–	1724	1676

CCOC(C)=O + CCCCCCCC[n+]1ccn(C)c1.F[P-](F)(F)(F)(F)F
x1 = 1
Settings	speed of sound [m/s]
298.15 K	1141
303.15 K	1111

CC(C)O + CCCC[n+]1ccn(C)c1.F[P-](F)(F)(F)(F)F
x1 = 1
Settings	speed of sound [m/s]
293.15 K	1156
303.15 K	1121

CCC(C)=O + CCCC[n+]1ccn(C)c1.F[P-](F)(F)(F)(F)F
Settings	speed of sound [m/s]
303.15 K, x1 = 1	1163

CCOC(C)=O + CCCC[n+]1ccn(C)c1.F[P-](F)(F)(F)(F)F
Settings	speed of sound [m/s]
293.15 K, x1 = 1	1162

CCCCCCCC[n+]1ccn(C)c1.F[P-](F)(F)(F)(F)F + CCOC(C)=O
speed of sound [m/s]
Settings	293.15 K	298.15 K	303.15 K
x2 = 0	1424	1408	1393
x2 = 0.0048	–	1408	–
x2 = 0.0967	1408	1393	1379
x2 = 0.1981	1391	1377	1364
x2 = 0.2967	1375	1361	1348
x2 = 0.3954	1358	1344	1330
x2 = 0.5056	1337	1323	–
x2 = 0.6061	1315	1299	1284
x2 = 0.7059	1288	1271	1253
x2 = 0.8004	–	1236	1218
x2 = 0.9036	1209	1189	1169
x2 = 0.9453	1189	–	1147

CCCC[n+]1ccn(C)c1.F[P-](F)(F)(F)(F)F + CCOC(C)=O
speed of sound [m/s]
Settings	293.15 K	298.15 K	303.15 K
x2 = 0	1455	1443	1431
x2 = 0.0501	1447	1436	1420
x2 = 0.1003	1438	1427	–
x2 = 0.1854	1421	1412	1401
x2 = 0.3	–	1391	1378
x2 = 0.4064	1379	1366	1354
x2 = 0.5117	1350	–	–
x2 = 0.6032	1319	1310	1291
x2 = 0.7061	1280	–	–
x2 = 0.802	1240	1228	1207
x2 = 0.9021	–	1180	1160
x2 = 0.948	–	1162	1137

COS(=O)(=O)[O-].Cn1cc[n+](C)c1 + CCOC(C)=O
speed of sound [m/s]
Settings	x2 = 0	x2 = 0.0509	x2 = 0.0706	x2 = 0.0928	x2 = 0.1254	x2 = 0.1451
293.15 K	1826	1808	–	1792	1775	1765
298.15 K	1813	1795	1789	1778	1765	1752
303.15 K	1801	1782	1777	1764	1746	–

CC(C)O + COS(=O)(=O)[O-].Cn1cc[n+](C)c1
x1 = 1
Settings	speed of sound [m/s]
293.15 K	1156
303.15 K	1121

CCC(C)=O + COS(=O)(=O)[O-].Cn1cc[n+](C)c1
x1 = 1
Settings	speed of sound [m/s]
293.15 K	1212
303.15 K	1163

CCOC(C)=O + COS(=O)(=O)[O-].Cn1cc[n+](C)c1
x1 = 1
Settings	speed of sound [m/s]
293.15 K	1162
303.15 K	1111
